Here are results for two compounds from ChEMBL document CHEMBL4507290 (2021).

Assay [1] has as its target Serine/threonine-protein kinase B-raf (Homo sapiens) (UniProt P15056). As to conditions: Compound concentration 1000.0 nM; call rule not given here.
In assay [2] the test system is Tyrosine-protein kinase ABL1 (Homo sapiens), P00519 [Q252H]. The note with it: Compound concentration 1000.0 nM.
In assay [3] the target is Delta-type opioid receptor (Homo sapiens) (UniProt P41143). As to conditions: Compound concentration 10.0 uM.
The target of assay [4] is Histamine H1 receptor (Homo sapiens) (UniProt P35367). The note with it: Compound concentration 10.0 uM.
The target in assay [5] is 5-hydroxytryptamine receptor 6 (Homo sapiens) (UniProt P50406). The note with it: Compound concentration 10.0 uM.
The subject of assay [6] is Tyrosine-protein kinase ABL1 (Homo sapiens), P00519 [E255K]. The note with it: Compound concentration 1000.0 nM.
Assay [7] relates to Tyrosine-protein kinase ABL1 (Homo sapiens), P00519 [Q252H]. The note with it: Compound concentration 1000.0 nM. The source holds these as a separate data set.
Assay [8] concerns the target Tyrosine-protein kinase ABL1 (Homo sapiens) (UniProt P00519). As to conditions: Compound concentration 1000.0 nM.
The target of assay [9] is cAMP-dependent protein kinase catalytic subunit beta (Homo sapiens) (UniProt P22694). As to conditions: Compound concentration 1000.0 nM.
Assay [10] concerns the target Alpha-1D adrenergic receptor (Homo sapiens) (UniProt P25100). As to conditions: Compound concentration 10.0 uM.
Assay [11] concerns the target Alpha-2C adrenergic receptor (Homo sapiens) (UniProt P18825). As to conditions: Compound concentration 10.0 uM.
The target in assay [12] is Kappa-type opioid receptor (Homo sapiens) (UniProt P41145). As to conditions: Compound concentration 10.0 uM.
Assay [13] deals with Inhibitor of nuclear factor kappa-B kinase subunit epsilon (Homo sapiens) (UniProt Q14164). The note with it: Compound concentration 1000.0 nM.
Assay [14] relates to Hepatocyte growth factor receptor (Homo sapiens), P08581 [Y1235D]. The note with it: Compound concentration 1000.0 nM.
Assay [15] concerns the target T1, Sodium-dependent dopamine transporter (Homo sapiens, UniProt Q01959). Description: Functional Assay: Platelet-rich plasma SLC6A3/cAMP. Type of assay: cell-free.
For assay [16], the target named is Histamine H3 receptor (Homo sapiens) (UniProt Q9Y5N1). As to conditions: Compound concentration 10.0 uM.
Assay [17] has as its target T1, Sodium-dependent dopamine transporter. As to the kind of experiment: GPCRScan assay: inhibition of DAT. Further details: radioligand conc. used [nm] 3.6 – 16.0, parental cells stable HEK.
For assay [18] the target is unchanged. As to conditions: Compound concentration 10.0 uM.
In assay [19] the target is cAMP-dependent protein kinase catalytic subunit alpha (Homo sapiens) (UniProt P17612). The note with it: Compound concentration 1000.0 nM.
Assay [20] addresses Alpha-1A adrenergic receptor (Homo sapiens) (UniProt P35348). As to conditions: Compound concentration 10.0 uM.
The target in assay [21] is MAP kinase-activated protein kinase 5 (Homo sapiens) (UniProt Q8IW41). The note with it: Compound concentration 1000.0 nM.
Assay [22] has as its target 5-hydroxytryptamine receptor 1A (Homo sapiens) (UniProt P08908). The note with it: Compound concentration 10.0 uM.
Assay [23] deals with Alpha-2A adrenergic receptor (Homo sapiens) (UniProt P08913). As to conditions: Compound concentration 10.0 uM.
In assay [24] the target is Inhibitor of nuclear factor kappa-B kinase subunit alpha (Homo sapiens) (UniProt O15111). As to conditions: Compound concentration 1000.0 nM.
Assay [25] concerns Hepatocyte growth factor receptor (Homo sapiens), P08581 [M1250T]. As to conditions: Compound concentration 1000.0 nM.

T1 sequence (Q01959 whole entry): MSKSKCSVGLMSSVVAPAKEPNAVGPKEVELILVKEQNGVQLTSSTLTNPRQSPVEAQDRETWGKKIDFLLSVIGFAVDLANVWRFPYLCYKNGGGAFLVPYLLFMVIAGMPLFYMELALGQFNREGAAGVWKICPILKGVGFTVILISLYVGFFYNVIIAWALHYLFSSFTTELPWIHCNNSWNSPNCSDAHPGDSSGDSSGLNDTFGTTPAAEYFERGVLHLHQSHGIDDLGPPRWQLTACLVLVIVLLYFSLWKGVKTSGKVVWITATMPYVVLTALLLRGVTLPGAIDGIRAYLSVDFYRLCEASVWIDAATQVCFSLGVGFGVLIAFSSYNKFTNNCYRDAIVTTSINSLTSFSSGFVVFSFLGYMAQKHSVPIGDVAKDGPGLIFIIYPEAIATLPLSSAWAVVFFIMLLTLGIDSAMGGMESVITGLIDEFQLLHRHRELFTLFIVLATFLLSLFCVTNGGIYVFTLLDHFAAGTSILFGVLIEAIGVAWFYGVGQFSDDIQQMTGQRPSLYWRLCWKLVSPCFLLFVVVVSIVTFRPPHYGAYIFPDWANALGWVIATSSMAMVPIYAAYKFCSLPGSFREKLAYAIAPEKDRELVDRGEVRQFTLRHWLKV
Chain of Alpha-1A adrenergic receptor (Homo sapiens) (P35348 whole entry): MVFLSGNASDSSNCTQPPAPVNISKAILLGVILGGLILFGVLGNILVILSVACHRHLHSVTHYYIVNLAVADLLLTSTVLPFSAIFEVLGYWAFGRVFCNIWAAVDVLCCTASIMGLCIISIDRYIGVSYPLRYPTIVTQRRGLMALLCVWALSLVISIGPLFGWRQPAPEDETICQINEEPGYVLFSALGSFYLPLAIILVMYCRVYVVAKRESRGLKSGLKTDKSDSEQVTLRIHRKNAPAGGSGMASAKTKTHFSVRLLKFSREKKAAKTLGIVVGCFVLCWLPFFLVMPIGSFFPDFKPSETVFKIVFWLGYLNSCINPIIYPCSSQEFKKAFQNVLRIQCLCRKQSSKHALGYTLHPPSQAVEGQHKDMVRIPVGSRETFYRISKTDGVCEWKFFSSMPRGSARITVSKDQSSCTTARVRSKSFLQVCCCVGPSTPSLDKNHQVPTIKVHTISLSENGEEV
Chain of Histamine H3 receptor (Homo sapiens) (Q9Y5N1 whole entry): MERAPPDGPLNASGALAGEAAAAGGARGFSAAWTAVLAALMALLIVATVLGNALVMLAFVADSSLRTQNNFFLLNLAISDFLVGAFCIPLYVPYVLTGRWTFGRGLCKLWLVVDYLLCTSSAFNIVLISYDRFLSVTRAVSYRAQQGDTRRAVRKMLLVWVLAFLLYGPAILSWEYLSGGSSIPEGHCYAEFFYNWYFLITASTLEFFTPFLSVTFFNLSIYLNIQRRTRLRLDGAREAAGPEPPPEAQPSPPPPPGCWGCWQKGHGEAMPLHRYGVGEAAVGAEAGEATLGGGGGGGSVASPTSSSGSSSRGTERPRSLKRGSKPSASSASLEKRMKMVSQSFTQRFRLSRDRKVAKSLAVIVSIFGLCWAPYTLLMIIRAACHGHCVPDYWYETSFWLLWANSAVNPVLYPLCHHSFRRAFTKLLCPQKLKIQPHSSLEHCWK
Chain of Kappa-type opioid receptor (Homo sapiens) (P41145 whole entry): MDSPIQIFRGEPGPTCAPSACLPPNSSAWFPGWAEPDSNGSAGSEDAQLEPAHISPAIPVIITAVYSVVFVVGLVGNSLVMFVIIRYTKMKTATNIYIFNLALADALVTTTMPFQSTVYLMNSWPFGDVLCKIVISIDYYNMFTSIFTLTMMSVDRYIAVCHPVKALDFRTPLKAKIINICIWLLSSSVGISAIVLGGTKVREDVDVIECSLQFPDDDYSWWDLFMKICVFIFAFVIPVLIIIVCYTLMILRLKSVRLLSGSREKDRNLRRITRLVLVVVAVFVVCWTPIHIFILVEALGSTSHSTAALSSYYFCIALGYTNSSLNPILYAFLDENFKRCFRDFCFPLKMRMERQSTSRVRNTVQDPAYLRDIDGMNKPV
Chain of Inhibitor of nuclear factor kappa-B kinase subunit epsilon (Homo sapiens) (Q14164 whole entry): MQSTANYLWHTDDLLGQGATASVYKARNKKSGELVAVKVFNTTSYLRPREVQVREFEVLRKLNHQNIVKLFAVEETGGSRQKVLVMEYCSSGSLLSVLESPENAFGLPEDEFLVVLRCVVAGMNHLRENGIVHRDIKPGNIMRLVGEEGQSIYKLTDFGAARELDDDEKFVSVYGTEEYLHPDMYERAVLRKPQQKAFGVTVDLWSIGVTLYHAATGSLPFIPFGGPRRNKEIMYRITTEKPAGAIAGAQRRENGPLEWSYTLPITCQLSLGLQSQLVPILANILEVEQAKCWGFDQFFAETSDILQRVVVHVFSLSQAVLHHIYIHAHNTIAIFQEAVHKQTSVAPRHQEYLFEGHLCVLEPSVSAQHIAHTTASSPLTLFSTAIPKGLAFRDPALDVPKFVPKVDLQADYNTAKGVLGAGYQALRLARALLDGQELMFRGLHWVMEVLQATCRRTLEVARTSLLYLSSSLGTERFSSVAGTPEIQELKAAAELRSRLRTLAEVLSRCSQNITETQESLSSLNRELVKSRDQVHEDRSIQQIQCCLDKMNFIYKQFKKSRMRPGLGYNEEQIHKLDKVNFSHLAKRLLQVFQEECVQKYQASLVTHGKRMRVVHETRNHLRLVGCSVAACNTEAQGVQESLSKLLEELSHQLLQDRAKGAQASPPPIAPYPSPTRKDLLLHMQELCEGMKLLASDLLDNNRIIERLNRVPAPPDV
Chain of Histamine H1 receptor (Homo sapiens) (P35367 whole entry): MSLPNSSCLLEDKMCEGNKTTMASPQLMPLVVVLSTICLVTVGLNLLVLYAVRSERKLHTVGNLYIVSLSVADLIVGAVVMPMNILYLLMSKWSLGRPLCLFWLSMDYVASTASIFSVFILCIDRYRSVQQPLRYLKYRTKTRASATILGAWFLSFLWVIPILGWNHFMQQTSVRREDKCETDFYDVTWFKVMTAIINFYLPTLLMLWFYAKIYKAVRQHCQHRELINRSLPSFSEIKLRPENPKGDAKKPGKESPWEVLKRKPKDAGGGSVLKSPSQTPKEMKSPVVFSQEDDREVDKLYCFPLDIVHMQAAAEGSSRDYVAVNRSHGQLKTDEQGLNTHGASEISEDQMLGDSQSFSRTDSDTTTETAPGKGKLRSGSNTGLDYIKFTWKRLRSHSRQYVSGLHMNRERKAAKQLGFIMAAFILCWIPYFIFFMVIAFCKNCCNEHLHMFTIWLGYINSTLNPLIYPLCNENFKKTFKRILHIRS
Chain of MAP kinase-activated protein kinase 5 (Homo sapiens) (Q8IW41 whole entry): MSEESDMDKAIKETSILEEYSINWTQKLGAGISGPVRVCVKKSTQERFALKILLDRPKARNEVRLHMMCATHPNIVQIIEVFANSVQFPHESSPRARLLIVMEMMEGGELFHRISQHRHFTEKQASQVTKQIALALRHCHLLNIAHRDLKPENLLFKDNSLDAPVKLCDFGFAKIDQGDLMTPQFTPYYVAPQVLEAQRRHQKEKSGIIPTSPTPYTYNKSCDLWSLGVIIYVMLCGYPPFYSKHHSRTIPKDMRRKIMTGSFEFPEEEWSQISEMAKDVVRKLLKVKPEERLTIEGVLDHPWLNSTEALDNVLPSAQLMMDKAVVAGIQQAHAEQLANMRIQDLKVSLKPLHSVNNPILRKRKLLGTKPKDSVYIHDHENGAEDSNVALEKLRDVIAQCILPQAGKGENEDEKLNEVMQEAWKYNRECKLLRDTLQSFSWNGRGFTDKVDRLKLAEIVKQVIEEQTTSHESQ
Chain of Inhibitor of nuclear factor kappa-B kinase subunit alpha (Homo sapiens) (O15111 whole entry): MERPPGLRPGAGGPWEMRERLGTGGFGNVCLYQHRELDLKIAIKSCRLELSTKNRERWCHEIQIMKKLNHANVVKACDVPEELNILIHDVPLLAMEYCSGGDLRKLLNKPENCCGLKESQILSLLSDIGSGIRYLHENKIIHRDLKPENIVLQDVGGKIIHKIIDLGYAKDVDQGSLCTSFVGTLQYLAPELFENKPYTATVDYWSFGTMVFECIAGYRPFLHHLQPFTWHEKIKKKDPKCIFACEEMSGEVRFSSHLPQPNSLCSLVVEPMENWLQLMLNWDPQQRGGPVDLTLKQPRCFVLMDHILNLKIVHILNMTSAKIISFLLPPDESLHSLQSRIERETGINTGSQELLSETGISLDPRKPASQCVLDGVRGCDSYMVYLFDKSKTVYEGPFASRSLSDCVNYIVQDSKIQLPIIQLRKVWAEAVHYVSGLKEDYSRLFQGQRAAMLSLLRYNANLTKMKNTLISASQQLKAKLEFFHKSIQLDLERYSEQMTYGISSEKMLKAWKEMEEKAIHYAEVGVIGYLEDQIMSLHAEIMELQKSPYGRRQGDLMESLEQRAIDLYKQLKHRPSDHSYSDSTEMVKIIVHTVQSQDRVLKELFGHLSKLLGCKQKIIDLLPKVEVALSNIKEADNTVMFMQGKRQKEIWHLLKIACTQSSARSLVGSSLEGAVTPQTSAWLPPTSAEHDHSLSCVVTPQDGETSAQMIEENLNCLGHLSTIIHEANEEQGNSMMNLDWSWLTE
Chain of Delta-type opioid receptor (Homo sapiens) (P41143 whole entry): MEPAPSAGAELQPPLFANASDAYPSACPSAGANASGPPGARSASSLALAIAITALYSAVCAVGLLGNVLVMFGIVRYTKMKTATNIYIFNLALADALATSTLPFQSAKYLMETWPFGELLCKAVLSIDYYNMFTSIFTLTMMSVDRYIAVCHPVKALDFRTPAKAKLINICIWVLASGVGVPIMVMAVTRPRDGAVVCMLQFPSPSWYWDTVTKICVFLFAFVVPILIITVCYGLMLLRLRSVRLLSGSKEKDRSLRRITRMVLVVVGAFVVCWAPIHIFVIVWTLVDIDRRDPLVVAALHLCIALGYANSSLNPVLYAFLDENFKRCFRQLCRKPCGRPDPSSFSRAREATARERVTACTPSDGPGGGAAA

A word on the inhibition: it is the relative decrease from the control value, in per cent. Take `CN([C@@H]1CCc2c(CC(=O)O)c3cc(S(C)(=O)=O)ccc3n2C1)S(=O)(=O)c1ccc(F)cc1`: the residual activity in [1] is 98%; in [2], 98%; in [6], 100%; in [7], 79%; in assay [8] it was 74%. In addition, the inhibition in [3] was 20%; in [4] it was -9.04%; in assay [5] it was -5.39%.
A word on the IC50: it is the concentration needed to halve the response being measured. Higher therefore signals lower potency. As to `CN([C@@H]1CCc2c(CC(=O)O)c3ccccc3n2C1)S(=O)(=O)c1ccc(F)cc1` [MK-7246], the residual activity in assay [9] was 100%; in [13] it was 84%; in [14], 100%; in assay [19], 100%; in [21], 94%; in [24] it was 100%. The residual activity in [25] is 100%. The inhibition is 50% in assay [10]; -3.1% in assay [11]; 4.56% in assay [12]; 4.03% in assay [16]; 77.1% in assay [18]; -4.89% in assay [20]. Besides, the inhibition is 15.5% in [22] and -3.89% in assay [23]. For the same compound, in assay [15], the half-inhibitory concentration (IC50) is 8690 nM (not active). Moreover, the Ki in [17] (read-out: Ki) was 283 nM; in [17] (read-out: pKi (converted)), 316 nM.
